Numbers after ± are expanded uncertainties.
Assay: xn = mol fraction of the nth substance listed
Conditions: Vibrating tube method

SMILES: O=O [oxygen] + O=C=O
- mass density (273.15 K, 1001 kPa, Gas, x2 = 0.8512): 20 ± 0.2 kg/m3
- mass density (273.15 K, 1001 kPa, Gas, x2 = 0.9558): 21 ± 0.2 kg/m3
- mass density (273.15 K, 2001 kPa, Gas, x2 = 0.8512): 41.9 ± 0.2 kg/m3
- mass density (273.15 K, 2001 kPa, Gas, x2 = 0.9558): 44.5 ± 0.2 kg/m3
- mass density (273.15 K, 3000 kPa, Gas, x2 = 0.8512): 68 ± 0.2 kg/m3
- mass density (273.15 K, 3001 kPa, Gas, x2 = 0.9558): 74.2 ± 0.2 kg/m3
- mass density (273.15 K, 3600 kPa, Gas, x2 = 0.9558): 97.6 ± 0.3 kg/m3
- mass density (273.15 K, 4001 kPa, Gas, x2 = 0.8512): 101 ± 0.3 kg/m3
- mass density (273.15 K, 4400 kPa, Gas, x2 = 0.8512): 121.1 ± 0.3 kg/m3
- mass density (273.15 K, 5101 kPa, Liquid, x2 = 0.9558): 895 ± 1 kg/m3
- mass density (273.15 K, 6000 kPa, Liquid, x2 = 0.9558): 902.5 ± 1.1 kg/m3
- mass density (273.15 K, 7001 kPa, Liquid, x2 = 0.9558): 911.9 ± 1 kg/m3
- mass density (273.15 K, 8001 kPa, Liquid, x2 = 0.9558): 920.4 ± 1.1 kg/m3
- mass density (273.15 K, 9001 kPa, Liquid, x2 = 0.9558): 928.6 ± 1 kg/m3
- mass density (273.15 K, 9013 kPa, Liquid, x2 = 0.8512): 798.3 ± 1.4 kg/m3
- mass density (273.15 K, 10001 kPa, Liquid, x2 = 0.9558): 936 ± 1 kg/m3
- mass density (273.15 K, 10003 kPa, Liquid, x2 = 0.8512): 811.5 ± 1.4 kg/m3
- mass density (273.15 K, 11001 kPa, Liquid, x2 = 0.8512): 825.1 ± 1.2 kg/m3
- mass density (273.15 K, 11001 kPa, Liquid, x2 = 0.9558): 943.1 ± 1 kg/m3
- mass density (273.15 K, 12001 kPa, Liquid, x2 = 0.8512): 837.4 ± 1.1 kg/m3
- mass density (273.15 K, 12001 kPa, Liquid, x2 = 0.9558): 949.6 ± 0.9 kg/m3
- mass density (273.15 K, 13001 kPa, Liquid, x2 = 0.8512): 848.5 ± 1.1 kg/m3
- mass density (273.15 K, 13001 kPa, Liquid, x2 = 0.9558): 955.8 ± 0.9 kg/m3
- mass density (273.15 K, 14000 kPa, Liquid, x2 = 0.8512): 858.7 ± 1 kg/m3
- mass density (273.15 K, 14000 kPa, Liquid, x2 = 0.9558): 961.5 ± 0.9 kg/m3
- mass density (273.15 K, 15002 kPa, Liquid, x2 = 0.8512): 868.2 ± 1 kg/m3
- mass density (273.15 K, 15002 kPa, Liquid, x2 = 0.9558): 967.1 ± 0.9 kg/m3
- mass density (273.15 K, 16000 kPa, Liquid, x2 = 0.8512): 877 ± 1 kg/m3
- mass density (273.15 K, 16001 kPa, Liquid, x2 = 0.9558): 972.4 ± 0.9 kg/m3
- mass density (273.15 K, 17000 kPa, Liquid, x2 = 0.9558): 977.6 ± 0.8 kg/m3
- mass density (273.15 K, 17003 kPa, Liquid, x2 = 0.8512): 885.4 ± 0.9 kg/m3
- mass density (273.15 K, 18000 kPa, Liquid, x2 = 0.8512): 892.9 ± 0.9 kg/m3
- mass density (273.15 K, 18001 kPa, Liquid, x2 = 0.9558): 982.4 ± 0.8 kg/m3
- mass density (273.15 K, 19001 kPa, Liquid, x2 = 0.9558): 987.2 ± 0.8 kg/m3
- mass density (273.15 K, 19039 kPa, Liquid, x2 = 0.8512): 898.3 ± 1 kg/m3
- mass density (273.15 K, 20001 kPa, Liquid, x2 = 0.9558): 991.7 ± 0.8 kg/m3
- mass density (283.15 K, 1000 kPa, Gas, x2 = 0.9558): 21 ± 0.2 kg/m3
- mass density (283.15 K, 1002 kPa, Gas, x2 = 0.8512): 19.2 ± 0.2 kg/m3
- mass density (283.15 K, 2000 kPa, Gas, x2 = 0.9558): 43.2 ± 0.2 kg/m3
- mass density (283.15 K, 2001 kPa, Gas, x2 = 0.8512): 39.7 ± 0.2 kg/m3
- mass density (283.15 K, 3000 kPa, Gas, x2 = 0.8512): 63.3 ± 0.2 kg/m3
- mass density (283.15 K, 3001 kPa, Gas, x2 = 0.9558): 69.8 ± 0.2 kg/m3
- mass density (283.15 K, 4000 kPa, Gas, x2 = 0.9558): 103.9 ± 0.3 kg/m3
- mass density (283.15 K, 4001 kPa, Gas, x2 = 0.8512): 91.1 ± 0.2 kg/m3
- mass density (283.15 K, 4700 kPa, Gas, x2 = 0.9558): 139.4 ± 0.4 kg/m3
- mass density (283.15 K, 5000 kPa, Gas, x2 = 0.8512): 125.7 ± 0.3 kg/m3
- mass density (283.15 K, 6001 kPa, Gas, x2 = 0.8512): 175.6 ± 0.4 kg/m3
- mass density (283.15 K, 6200 kPa, Liquid, x2 = 0.9558): 819 ± 1.2 kg/m3
- mass density (283.15 K, 7000 kPa, Liquid, x2 = 0.9558): 835.3 ± 1.2 kg/m3
- mass density (283.15 K, 8001 kPa, Liquid, x2 = 0.9558): 849.8 ± 1.1 kg/m3
- mass density (283.15 K, 9001 kPa, Liquid, x2 = 0.9558): 862.8 ± 1.2 kg/m3
- mass density (283.15 K, 9610 kPa, Liquid, x2 = 0.8512): 686.6 ± 1.5 kg/m3
- mass density (283.15 K, 10001 kPa, Liquid, x2 = 0.8512): 699.4 ± 1.7 kg/m3
- mass density (283.15 K, 10001 kPa, Liquid, x2 = 0.9558): 873.8 ± 1.1 kg/m3
- mass density (283.15 K, 11001 kPa, Liquid, x2 = 0.8512): 728.8 ± 1.6 kg/m3
- mass density (283.15 K, 11004 kPa, Liquid, x2 = 0.9558): 884.1 ± 1.1 kg/m3
- mass density (283.15 K, 12000 kPa, Liquid, x2 = 0.9558): 893.2 ± 1 kg/m3
- mass density (283.15 K, 12001 kPa, Liquid, x2 = 0.8512): 751.4 ± 1.4 kg/m3
- mass density (283.15 K, 13000 kPa, Liquid, x2 = 0.8512): 770.5 ± 1.3 kg/m3
- mass density (283.15 K, 13000 kPa, Liquid, x2 = 0.9558): 901.9 ± 1 kg/m3
- mass density (283.15 K, 14001 kPa, Liquid, x2 = 0.8512): 786.6 ± 1.2 kg/m3
- mass density (283.15 K, 14002 kPa, Liquid, x2 = 0.9558): 909.9 ± 0.9 kg/m3
- mass density (283.15 K, 15000 kPa, Liquid, x2 = 0.8512): 800 ± 1.1 kg/m3
- mass density (283.15 K, 15000 kPa, Liquid, x2 = 0.9558): 917.3 ± 0.9 kg/m3
- mass density (283.15 K, 16001 kPa, Liquid, x2 = 0.8512): 812.4 ± 1.1 kg/m3
- mass density (283.15 K, 16001 kPa, Liquid, x2 = 0.9558): 924.2 ± 0.9 kg/m3
- mass density (283.15 K, 17000 kPa, Liquid, x2 = 0.9558): 930.8 ± 0.9 kg/m3
- mass density (283.15 K, 17001 kPa, Liquid, x2 = 0.8512): 823.5 ± 1 kg/m3
- mass density (283.15 K, 18001 kPa, Liquid, x2 = 0.9558): 937 ± 0.9 kg/m3
- mass density (283.15 K, 19001 kPa, Liquid, x2 = 0.9558): 943 ± 0.8 kg/m3
- mass density (283.15 K, 20003 kPa, Liquid, x2 = 0.9558): 948.7 ± 0.8 kg/m3
- mass density (293.15 K, 1000 kPa, Gas, x2 = 0.9558): 22.8 ± 0.2 kg/m3
- mass density (293.15 K, 1001 kPa, Gas, x2 = 0.8512): 18.7 ± 0.2 kg/m3
- mass density (293.15 K, 2000 kPa, Gas, x2 = 0.8512): 38.1 ± 0.2 kg/m3
- mass density (293.15 K, 2002 kPa, Gas, x2 = 0.9558): 42.6 ± 0.2 kg/m3
- mass density (293.15 K, 3001 kPa, Gas, x2 = 0.8512): 59.8 ± 0.2 kg/m3
- mass density (293.15 K, 3001 kPa, Gas, x2 = 0.9558): 66.2 ± 0.2 kg/m3
- mass density (293.15 K, 4001 kPa, Gas, x2 = 0.8512): 84.6 ± 0.2 kg/m3
- mass density (293.15 K, 4001 kPa, Gas, x2 = 0.9558): 95.2 ± 0.2 kg/m3
- mass density (293.15 K, 5000 kPa, Gas, x2 = 0.9558): 132.4 ± 0.3 kg/m3
- mass density (293.15 K, 5003 kPa, Gas, x2 = 0.8512): 113.5 ± 0.3 kg/m3
- mass density (293.15 K, 6001 kPa, Gas, x2 = 0.9558): 190.2 ± 0.4 kg/m3
- mass density (293.15 K, 6002 kPa, Gas, x2 = 0.8512): 148.8 ± 0.4 kg/m3
- mass density (293.15 K, 7000 kPa, Gas, x2 = 0.8512): 194.6 ± 0.4 kg/m3
- mass density (293.15 K, 7402 kPa, Liquid, x2 = 0.9558): 718 ± 1.5 kg/m3
- mass density (293.15 K, 8001 kPa, Gas, x2 = 0.8512): 260.9 ± 0.5 kg/m3
- mass density (293.15 K, 8002 kPa, Liquid, x2 = 0.9558): 747 ± 1.3 kg/m3
- mass density (293.15 K, 8600 kPa, Gas, x2 = 0.8512): 316 ± 0.6 kg/m3
- mass density (293.15 K, 9001 kPa, Liquid, x2 = 0.9558): 775.6 ± 1.2 kg/m3
- mass density (293.15 K, 9801 kPa, Fluid (supercritical or subcritical phases), x2 = 0.8512): 460.3 ± 0.9 kg/m3
- mass density (293.15 K, 10001 kPa, Fluid (supercritical or subcritical phases), x2 = 0.8512): 481.5 ± 1 kg/m3
- mass density (293.15 K, 10001 kPa, Liquid, x2 = 0.9558): 797.4 ± 1.4 kg/m3
- mass density (293.15 K, 11001 kPa, Liquid, x2 = 0.8512): 564.7 ± 2.1 kg/m3
- mass density (293.15 K, 11002 kPa, Liquid, x2 = 0.9558): 813.9 ± 1.3 kg/m3
- mass density (293.15 K, 12001 kPa, Liquid, x2 = 0.8512): 617.8 ± 1.8 kg/m3
- mass density (293.15 K, 12002 kPa, Liquid, x2 = 0.9558): 828.6 ± 1.2 kg/m3
- mass density (293.15 K, 13000 kPa, Liquid, x2 = 0.9558): 841.3 ± 1.1 kg/m3
- mass density (293.15 K, 13002 kPa, Liquid, x2 = 0.8512): 657.7 ± 1.6 kg/m3
- mass density (293.15 K, 14000 kPa, Liquid, x2 = 0.9558): 852.2 ± 1.1 kg/m3
- mass density (293.15 K, 14001 kPa, Liquid, x2 = 0.8512): 686.2 ± 1.4 kg/m3
- mass density (293.15 K, 15001 kPa, Liquid, x2 = 0.8512): 710.2 ± 1.3 kg/m3
- mass density (293.15 K, 15001 kPa, Liquid, x2 = 0.9558): 862.4 ± 1 kg/m3
- mass density (293.15 K, 16001 kPa, Liquid, x2 = 0.8512): 730.8 ± 1.2 kg/m3
- mass density (293.15 K, 16001 kPa, Liquid, x2 = 0.9558): 871.6 ± 1 kg/m3
- mass density (293.15 K, 17000 kPa, Liquid, x2 = 0.9558): 880.2 ± 1 kg/m3
- mass density (293.15 K, 17002 kPa, Liquid, x2 = 0.8512): 747.7 ± 1.1 kg/m3
- mass density (293.15 K, 18000 kPa, Liquid, x2 = 0.9558): 888.3 ± 0.9 kg/m3
- mass density (293.15 K, 19001 kPa, Liquid, x2 = 0.9558): 895.9 ± 0.8 kg/m3
- mass density (293.15 K, 20000 kPa, Liquid, x2 = 0.9558): 902.8 ± 0.8 kg/m3

From the NIST ThermoML archive (doi:10.1021/je300590v)
